Source: patent US20140329776A1, “Mitochondria-Targeted Antioxidants for Treatment of Age-Related Brain Disorders” (MITOTECH S.A., priority 2011, published 2014)

Key:
[1] = test system: rats after transient middle cerebral artery occlusion; assay: transient middle cerebral artery occlusion, brain infarct volume (TTC staining); type: in vivo, rat; conditions: single intraperitoneal injection 0.5-2 μmol/kg body weight; 24 h before 60 min occlusion; studied 24 h after occlusion
Method: Several effects of SkQs were observed when brain functions were studied. Where indicated, 1 μmol SkQR1 per kg of body weight was injected intraperitoneally 24 h before the 60 min occlusion of the artery. The ischemia effect was studied 24 h after the occlusion (Plotnikov, et al., Biochemistry (Mosc) 75:145-150 (2010) here and below, p<0.05 for SkQ effect).

[2] = test system: hippocampal slice neurons; assay: LTP of hippocampal slices, nootropic activity; conditions: administered in vivo; FIG. 15
Text: FIG. 15 is a bar graph showing the nootropic activity of preferred SkQ mitochondria-targeted antioxidants of the invention when administered to animals in vivo.

Wistar rats [3] = assay: limb-placing test after focal open severe brain trauma; type: in vivo, rat; conditions: 100 nmol/kg i.p. 1 h after trauma then daily for four days, 12-score scale, mean±SEM
Method: (§1) In this study, we, the inventors, employed our modification of the earlier used model of focal open severe brain trauma in rats. The study was performed on male Wistar rats with body weight of 180-250 g. Before the surgery, the animals were anesthetized by an intraperitoneal injection of 3% chloral hydrate (330 mg/kg). To create the trauma, the left frontal part of the skull was trepanized above the sensorimotor cortex zone, and a movable Teflon piston 4 mm in diameter with depth of insertion of 2.5 mm was placed into it; this piston was struck from the height of 10 cm with a 50-g load sliding along a directing rail. Localization of the sensorimotor cortex zone was determined based on data described in [14].
SkQR1 (100 nmol/kg) was injected intraperitoneally 1 h after the trauma and then daily in the same dose during the following four days.
Behavioral “limb-placing test” was performed 24 h before the operation and then on the third and seventh days after the trauma. […] The resulting score on this scale is determined as the sum of points obtained in six tests assessing the response of the forelimbs and hindlimbs to tactile and proprioceptive stimulation in the presence of obvious reflexes. […]
The results are expressed as the mean±standard error of mean. […] The statistical significance of differences in the damaged volumes was assessed using Student's t-test at the significance level of p<0.05.

[4] = test system: rats after transient middle cerebral artery occlusion; assay: limb-placing test after transient middle cerebral artery occlusion; type: in vivo, rat; conditions: after injection of SkQR1; first day after induction of ischemia
Method: Behavioral tests were performed 1 day before the induction of ischemia and on the first day after the induction of ischemia. The limb-placing test was used to evaluate the neurological deficit estimated by a conventional 14-point scale with modifications as described in Jolkkonen, et al., Eur. J. Pharmacol., 400:211-219 (2000)). The test had 7 limb-placing tasks that assess the sensorimotor integration of forelimb and hindlimb responses to tactile and proprioceptive stimulation.

Wistar rats [5] = assay: damaged focal volume (morphometry) after focal open severe brain trauma; type: in vivo, rat; conditions: seventh day after trauma; 100 nmol/kg i.p. 1 h after trauma then daily for four days; mean±SEM
Method: as §1, with “[14]. […]” for “[14].”
A magnetic resonance imaging (MRI) study was performed as described in [15] using a BioSpec 70/30 (Bruker, Germany) with magnetic field induction of 7 T and gradient of 105 mT/m. The damaged focal volume was determined morphometrically on the 7th day after the trauma. […] The volume of the lesion was determined as a cylinder with V=ΣSn×d, where d is thickness of the section pair (200 μm); Sn is the area of the lesion in the section in mm2; Σ is the sum of volumes of ischemic damage in the sections using an Image J program (Bethesda Md., USA).
The results are expressed as the mean±standard error of mean. […]

[6] = test system: hippocampal slice neurons; assay: long-term potentiation (LTP) of hippocampal slices treated with Aβ after in vivo treatment; parameters: species or system rat; conditions: for neuroprotective activity based on LTP signal, model of Alzheimer disease: administered in vivo to rats prior to extraction of hippocampus, beta-amyloid treatment
Method: FIG. 3B is a graphic representation showing the LTP caused by in vitro addition of Aβ, where the decay of LTP of hippocampal slice neurons characterized by a decrease of pop-spike amplitude (%) in a hippocampal slice treated with Aβ.
SkQR1 Aβ was added 15 min before the LTP induction with high-frequency electric stimulation (arrow). The decay of LTP (i.e. decrease of pop-spike amplitude) in a hippocampal slice treated with Aβ can be prevented by SkQR1 treatment.
FIG. 16 is a bar graph comparing the neuroprotective effects of preferred SkQ mitochondria-targeted antioxidants of the invention when administered in vivo in a model of Alzheimer disease.
As a model of cell memory, an electric response of a hippocampal slice (long-term potentiation, LTP) was used (Malenka, et al., Science 285:1870-1874 (1999)). A direct experiment was performed showing the prevention of Aβ toxicity in hippocampus by in vivo treatment of rats with 1 μmol SkQR1 per kg of body weight. The compound was injected intraperitoneally into the animal 24 hours before hippocampal slices were obtained to measure LTP. Some slices were pretreated with Aβ for 15 minutes. As is seen in FIG. 3B, Aβ impaired LTP relative to untreated control.
FIG. 16 provides a comparison of the neuroprotective effects of SkQ1, SkQR1 and C12TPP based on the LTP signal in neurons of hippocampal slices. Ab stands for beta-amyloid treatment. […] All SkQs and C12TPP were administered in vivo to rats prior the extraction of hippocampus.

AD patients = conditions: human, in vivo; cited from earlier work
mROS = conditions: in vivo; cited from earlier work

CC/N=c1/cc2oc3cc(NCC)c(C)cc3c(-c3ccccc3C(=O)OCCCCCCCCCCC3=CC(=O)C(C)=C(C)C3=O)c-2cc1C [SkQR1, plastoquinonyl decylrhodamine 19]
infarct volume in brain [1]: strongly decreased | LTP signal (nootropic activity) [2]: clearly stimulates LTP | limb-placing test score, right limbs (Wistar rats [3]; seventh day after trauma): 7.4±0.8 points | limb-placing test score, right limbs (Wistar rats [3]; third day after trauma): 6.6±0.8 points | behavioral defects, limb-placing test [4]: decrease | damaged volume (Wistar rats [5]): 15±4 mm3 | neuroprotective activity based on LTP signal, model of Alzheimer disease ([6]; FIG. 16): neuroprotective activity | impairment (decay) of LTP caused by Aβ ([6]; in vivo treatment (SkQR1 1 μmol/kg i.p. 24 hours before slices), Aβ added to slices for 15 min): prevented such impairment

O=C1O[C@H]([C@@H](O)CO)C(O)=C1O [ascorbate]
safety (AD patients): safe

O=C(O)CCCCC1CCSS1 (stereo not drawn) [α-lipoate]
efficacy in treating AD patients (AD patients): ineffective | safety (AD patients): safe

CCCCCCCCCCCC[P+](c1ccccc1)(c1ccccc1)c1ccccc1 [C12TPP]
neuroprotective activity compared to SkQ ([6]; FIG. 16): lower but still sufficient | neuroprotective activity based on LTP signal, model of Alzheimer disease ([6]; FIG. 16): neuroprotective activity

Cc1c(C)c2c(c(C)c1O)CC[C@@](C)(CCC[C@H](C)CCC[C@H](C)CCCC(C)C)O2 [α-tocopherol]
efficacy in treating AD patients (AD patients): ineffective | safety (AD patients): safe

COC1=C(OC)C(=O)C(CCCCCCCCCC[P+](c2ccccc2)(c2ccccc2)c2ccccc2)=C(C)C1=O [MitoQ]
outcome of targeting the antioxidant to quench mROS (mROS): failed
